Results on twelve compounds are retold here after US11319295B2, “Substituted phenyloxetane and phenyltetrahydrofuran compounds as indoleamine 2,3-dioxygenase (IDO) inhibitors” (MERCK SHARP & DOHME CORP., priority 2017, dated 2022).

The target of test [1] is TDO (Homo sapiens, UniProt P48775).
Description: TDO Cellular Assay in Frozen SW48 Cells
SW48 cells were cultured in complete RPMI culture medium (90% RPMI, 10% heat-inactivated fetal bovine serum).
SW48 and A2780 cells were dispensed to the respective wells of 384-well assay plates containing the compounds. The plates were incubated for about 48 hours at a 37° C., 5% CO2 incubator. Afterwards, 12 μL of 0.5 M ethyl isonipecotate (Sigma Aldrich, Cat #E33505) in dimethyl sulfoxide were added into each well and the plates were sealed and incubated at 37° C. without CO2 overnight. The plates were centrifuged for 1 minute at 200×g. The resulting fluorescence was measured in a Spectramax plate reader (Molecular Devices) with a 400 nm excitation filter and a 510 nm emission filter.
The fluorescence intensity of each well was corrected for the background observed in wells with A2780 cells and was expressed as a fraction of the intensity observed in wells of SW48 cells and DMSO only. Potencies were calculated by linear least squares fit to the four parameter logistic IC50 equation.
In test [2] the target is T1, IDO1 (Homo sapiens, UniProt P14902). The experiment in a line: IDO1 Cellular Assay in Hela Cells Stimulated with IFNγ. The conditions noted are these: Hela IC50 (nM), Hela cells stimulated with IFNγ 100 ng/mL, 300 uM L-tryptophan, about 48 hours; form screened: Neutral.
Description: Hela cells were cultured in complete Hela culture medium (90% EMEM, 10% heat-inactivated fetal bovine serum) and expanded to about 1×10^9 cells. The cells were then collected and frozen down at 1×10^7 cells/vial in 1 mL frozen medium (90% complete Hela culture medium, 10% DMSO)
Compounds to be tested were serially diluted in ten 3-fold steps in DMSO starting from 10 mM DMSO stocks in Echo low volume plate(s).
Hela cells with and without IFNγ were dispensed to the respective wells of 384-well assay plates containing the compounds. The plates were incubated for about 48 hours at a 37° C., 5% CO2 incubator. Afterwards, 12 mL of 0.5 M methyl isonipecotate in dimethyl sulfoxide were added into each well and the plates were sealed and incubated at 37° C. without CO2 overnight. The plates were centrifuged for 1 min at 200×g. The resulting fluorescence was measured in a Spectramax plate reader (Molecular Devices) with a 400 nm excitation filter and a 510 nm emission filter.
Potencies were calculated by linear least squares fit to the four parameter logistic IC50 equation.
Test [3] has as its target T1, IDO1. Kind of test: IDO1 Human Whole Blood Assay. The format is cell-based. The arrangement: Human whole blood was drawn in sodium heparin coated tubes from healthy internal donors; from tissue; host or cells: human whole blood from healthy donors, stimulated with LPS and IFNγ. The conditions noted are these: LPS and IFNγ 100 ng/mL, 18 h, kynurenine by LC/MS/MS, form screened: Neutral. The protocol:
IDO1 Human Whole Blood Assay
LPS and IFNγ was prepared in RPMI to a 10× of final conc. (1000 ng/mL), final concentration is 100 ng/mL.
Human whole blood was drawn in sodium heparin coated tubes from healthy internal donors. […] of blood was transferred to each of the wells of a v-bottom 96 well plate. […] of compound was transferred from intermediate dilution plate, and incubated for 15 min. 30 μL from stimulants was then transferred to blood and mixed thoroughly. Plate was covered with breathable membrane and incubated at 37° C. for overnight (18 h).
On day 2 isotope labeled standard of kynurenine and tryptophan was made in water at 10× concentration and […] was added to the blood at […] final concentration. The assay plates were centrifuged at 300×G for 10 min with no brake to separate plasma from red blood cells. […] of plasma samples was removed without disturbing red blood cells. Plasma was diluted with RPMI in 1:1 ratio and proteins were precipitated out with two volume of Acetonitrile. The plates was centrifuged at 4000×G for 60 min. 20 mL of supernatant was carefully transferred to a 384 well plate contain 40 mL of 0.1% formic acid in water and analyzed by LC/MS/MS.
LC/MS/MS analyses were performed using Thermo Fisher's LX4-TSQ Quantum Ultra system. This system consists of four Agilent binary high-performance liquid chromatography (HPLC) pumps and a TSQ Quantum Ultra triple quadruple MS/MS instrument. For each sample, […] were injected onto an Atlantis T3 column (2.1 mm×150 mm, […]) from Waters. The mobile phase gradient pumped at 0.8 mL/min was used to elute the analytes from the column at 25° C. […] Mobile phase A consisted of 0.1% formic acid in water. Mobile phase B consisted of 0.1% of formic acid in acetonitrile. Data was acquired in positive mode using a HESI interface. […] Compounds were titrated and IC50's were calculated by 4 parameter sigmoidal curve fitting formula.

Where [4] appears, read: read-out: SW48 IC50, SW48 cells, 300 uM L-tryptophan, about 48 hours, form screened: Neutral.

Structures are written as SMILES. Like-named read-outs stand apart in the source and are kept apart here.

TDO, sequence (P48775 whole entry): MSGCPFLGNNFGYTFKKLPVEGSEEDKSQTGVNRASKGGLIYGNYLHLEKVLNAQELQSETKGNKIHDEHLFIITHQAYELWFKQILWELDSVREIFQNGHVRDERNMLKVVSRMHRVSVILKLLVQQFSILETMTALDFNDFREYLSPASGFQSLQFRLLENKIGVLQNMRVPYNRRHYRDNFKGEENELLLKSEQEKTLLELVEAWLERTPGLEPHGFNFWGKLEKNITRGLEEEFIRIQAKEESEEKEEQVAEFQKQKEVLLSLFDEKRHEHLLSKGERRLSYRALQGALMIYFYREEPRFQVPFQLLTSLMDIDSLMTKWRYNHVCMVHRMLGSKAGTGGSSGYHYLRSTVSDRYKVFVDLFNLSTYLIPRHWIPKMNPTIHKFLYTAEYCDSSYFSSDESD
T1 sequence (P14902 whole entry): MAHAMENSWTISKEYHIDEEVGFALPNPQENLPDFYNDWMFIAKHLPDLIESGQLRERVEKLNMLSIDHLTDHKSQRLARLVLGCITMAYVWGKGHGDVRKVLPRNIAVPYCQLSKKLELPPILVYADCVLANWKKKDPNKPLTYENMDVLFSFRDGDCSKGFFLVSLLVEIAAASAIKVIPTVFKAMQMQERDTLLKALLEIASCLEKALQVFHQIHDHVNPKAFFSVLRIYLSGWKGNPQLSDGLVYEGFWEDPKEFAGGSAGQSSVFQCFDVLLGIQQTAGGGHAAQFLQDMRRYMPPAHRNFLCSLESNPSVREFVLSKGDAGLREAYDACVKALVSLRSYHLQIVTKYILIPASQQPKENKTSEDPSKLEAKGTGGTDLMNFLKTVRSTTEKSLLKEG

The IC50 is the concentration that gives 50% inhibition. `CC1CC1NC(=O)C1(c2ccc(NC(=O)c3cccc(Cl)c3)cc2)COC1` (single isomer, unassigned) [Example 4, 3-{4-[(3-chlorobenzene-1-carbonyl)amino]phenyl}-N-(2-methylcyclopropyl)oxetane-3-carboxamide]: the half-inhibitory concentration (IC50) was not below 10000 nM in test [1] (setting [4]), 12 nM in test [2] and 324 nM in test [3]. For the compound `CC1CC1NC(=O)C1(c2ccc(NC(=O)c3cccc(Cl)c3)cc2)COC1` (single isomer, unassigned) [Example 8, 3-{4-[(3-chlrobenzene-1-carbonyl)amino]phenyl}-N-(2-methylcyclo-propyl)oxetane-3-carboxamide], the IC50 was not below 10000 nM in test [1] and 85 nM in test [2]. With `CC1CC1NC(=O)C1(c2ccc(NC(=O)c3cccc(Cl)c3)cc2)COC1` (single isomer, unassigned) [Example 9, 3-{4-[(3-chlorobenzene-1-carbonyl)amino]phenyl}-N-(2-methylcyclo-propyl)oxetane-3-carboxamide], the results for the IC50 in test [1] (setting [4]) and in test [2] were not below 10000 nM and 216 nM, respectively. Turning to `CC1CC1NC(=O)C1(c2ccc(NC(=O)c3cccc(Cl)c3)cc2)COC1` (single isomer, unassigned) [Example 10, 3-{4-[(3-chlorobenzene-1-carbonyl)amino]phenyl}-N-(2-methylcyclo-propyl)oxetane-3-carboxamide], the IC50 was not below 10000 nM in test [1] (setting [4]) and 352 nM in test [2]. As for `O=C(Nc1ccc(C2(C(=O)Nc3ccc(F)cc3)COC2)cc1)c1cccc(Cl)c1F` [Example 3, 3-{4-[(3-chloro-2-fluorobenzene-1-carbonyl)amino]phenyl}-N-(4-fluorophenyl)oxetane-3-carboxamide], the IC50 was not below 10000 nM in test [1] and 3 nM in test [2]. Regarding `CCCNC(=O)C1(c2ccc(NC(=O)c3cccc(Cl)c3)cc2)COC1` [Example 5, 3-{4-[(3-chlorobenzene-1-carbonyl)amino]phenyl}-N-propyloxetane-3-carboxamide], the half-inhibitory concentration (IC50) in test [2] came to 25 nM; in test [3], 1530 nM. As for `O=C(Nc1ccc(C2(C(=O)NCCC(F)(F)F)COC2)cc1)c1cccc(Cl)c1` [Example 6, 3-{4-[(3-chlorobenzene-1-carbonyl)amino]phenyl}-N-(3,3,3-trifluoropropyl)oxetane-3-carboxamide], the half-maximal inhibitory concentration (IC50) in test [1] is not below 10000 nM; in test [2], 51 nM. As to `O=C(Nc1ccc(C2(C(=O)NCC3CC3)COC2)cc1)c1cccc(Cl)c1` [Example 7, 3-{4-[(3-chlorobenzene-1-carbonyl)amino]phenyl}-N-(cyclopropyl-methyl)oxetane-3-carboxamide], the IC50 in test [1] was not below 10000 nM; in test [2] it was 56 nM. Consider `Cc1cc(C2(C(=O)Nc3ccc(F)cc3)COC2)ncc1NC(=O)c1cccc(Cl)c1` [Example 17, 3-{5-[(3-chlorobenzene-1-carbonyl)amino]-4-methylpyridin-2-yl}-N-(4-fluorophenyl)oxetane-3-carboxamide], for which, in test [2], half-maximal inhibition (IC50) required 6 nM. In turn, `Cc1cc(C2(C(=O)Nc3ccc(F)cc3)COC2)ncc1NC(=O)c1cccc(C#N)c1` [Example 18, 3-{5-[(3-cyanobenzene-1-carbonyl)amino]-4-methylpyridin-2-yl}-N-(4-fluorophenyl)oxetane-3-carboxamide] gave a 50% inhibitory concentration (IC50) in test [2] of 58 nM. Regarding `Cc1cc(NC(=O)c2cccc(Cl)c2)cnc1C1(C(=O)Nc2ccc(F)cc2)COC1` [Example 19, 3-{5-[(3-chlorobenzene-1-carbonyl)amino]-3-methylpyridin-2-yl}-N-(4-fluorophenyl)oxetane-3-carboxamide], in test [2], it took 205 nM to reach half-maximal inhibition (IC50). On to `N#Cc1cccc(C(=O)Nc2ccc(C3(C(=O)Nc4ccc(F)cc4)COC3)nc2)c1` [Example 20, 3-{5-[(3-cyanobenzene-1-carbonyl)amino]pyridin-2-yl}-N-(4-fluorophenyl)oxetane-3-carboxamide], for which the figures for the IC50 in test [2] and in test [3] were 3 nM and 438 nM, respectively.
